{"source": "patent US7078386B2", "about": "“Enhancing agent for nerve growth factor production comprising a compound having a coumarin backbone or a compound having a 2-dimethyl chroman backbone” (Takara Bio, Inc., priority 2001, dated 2006)", "key": {"[1]": {"system": "L-M cells (ATCC CCL-1.2) from murine fibroblasts", "test": "Enhancing activity for NGF production: NGF concentration in culture medium by enzyme immunoassay", "type": "cell-based", "settings": "20 hours culture", "procedure": "(2) The enhancing activity for NGF production was determined for the fraction 10 derived from root portions of Angelica keiskei koidz., of which structure was identified in item (1) of Example 1. L-M cells (ATCC CCL-1.2) from murine fibroblasts were suspended in an M199 medium (manufactured by ICN) containing 0.5% bactopeptone (manufactured by Gibco) so as to have a concentration of 1.5×10^5 cells/ml. The suspension was put in a 96 well plate in an amount of 0.1 ml each well, and the cells were aseptically cultured. After culturing the cells for 3 days, the medium was removed therefrom, and exchanged with an M199 medium containing 0.5% bovine serum albumin (manufactured by Sigma). The fraction 10 derived from root portions of Angelica keiskei koidz. was added as the sample thereto, and the cells were cultured for 20 hours. After the termination of the culture, the concentration of the NGF in the culture medium was assayed by an enzyme immunoassay method (NGF Emax Immuno Assay System, manufactured by Promega). The NGF concentration when added was expressed, assuming that the NGF concentration in the cell culture medium with no addition of the sample is 100%, whereby the enhancing activity for NGF production of the sample was evaluated. The experiment was carried out twice, and an average value was taken. As a result, it was clarified that the fraction 10 derived from root portions of Angelica keiskei koidz., namely 3′-O-β-D-glucopyranoyl khellactone, has an enhancing activity for NGF production."}, "[2]": {"system": "rat", "test": "Single-dose oral administration toxicity in rat", "type": "in vivo", "settings": "orally administered, single dose at 1 g/kg of the body weight", "procedure": "No toxicity is found when the above-mentioned effective ingredient usable in the present invention is administered in an amount effective for the exhibition of its action. […] Also, incidence of adverse actions is not found."}}}
{"compound": "COc1ccc(C(=O)C=Cc2ccc(O)cc2)c2c1CC(O)C(C)(C)O2", "note": "(stereo not drawn) [3-hydroxy-8-[3-(4-hydroxyphenyl)-acryloyl]-5-methoxy-2-dimethyl chroman]", "values": [{"measurement": "Amount of NGF Produced", "setting": "[1]; Table 6, sample 200 μM, no-sample control = 100% (0.668 ng/ml)", "result": 457.7, "unit": "%"}, {"measurement": "cases of death", "setting": "[2]", "result": "no cases of death"}]}
{"compound": "CC1(C)Oc2ccc3ccc(=O)oc3c2C(O)C1OC1OC(CO)C(O)C(O)C1O", "note": "[Fraction 10, 3′-O-β-D-glucopyranoyl khellactone]", "values": [{"measurement": "Amount of NGF Produced", "setting": "[1]; Table 1, sample 2.00 mg/ml, no-sample control = 100% (0.382 ng/ml)", "result": 565.5, "unit": "%"}]}
{"compound": "CC(C)=CCc1c(OC2OC(CO)C(O)C(O)C2O)ccc2ccc(=O)oc12", "note": "[Fraction 13-2, 7-O-β-D-glucopyranosyloxy-8-prenyl coumarin]", "values": [{"measurement": "Amount of NGF Produced", "setting": "[1]; Table 2, sample 1.00 mg/ml, no-sample control = 100% (0.053 ng/ml)", "result": 792.1, "unit": "%"}]}
{"compound": "COc1ccc(C(=O)O)c2c1CC(O)C(C)(C)O2", "note": "(stereo not drawn) [Fraction 18-4, 8-carboxyl-3-hydroxy-5-methoxy-2-dimethyl chroman]", "values": [{"measurement": "Amount of NGF Produced", "setting": "[1]; Table 3, sample 0.0375 mg/ml, no-sample control = 100% (0.027 ng/ml)", "result": 2510.4, "unit": "%"}, {"measurement": "cases of death", "setting": "[2]", "result": "no cases of death"}]}
{"compound": "CC(C)=CCc1cc2ccc(=O)oc2cc1O[C@@H]1O[C@H](CO)[C@@H](O)[C@H](O)[C@H]1O", "note": "[Fraction 19/20-5, 7-β-D-glucopyranosyloxy-6-prenyl coumarin]", "values": [{"measurement": "Amount of NGF Produced", "setting": "[1]; Table 4, sample 1.00 mg/ml, no-sample control = 100% (0.063 ng/ml)", "result": 487.9, "unit": "%"}]}
{"compound": "C/C=C(/C)C(=O)OC1c2c(ccc3ccc(=O)oc23)OC(C)(C)C1O[C@@H]1O[C@H](CO[C@@H]2O[C@H](CO)[C@@H](O)[C@H](O)[C@H]2O)[C@@H](O)[C@H](O)[C@H]1O", "note": "(stereo partly drawn) [Fraction 19/20-6, 4′-O-angeloyl-3′-O-[6-O-(β-D-glucopyranosyl)-β-D-glucopyranosyl]-khellactone]", "values": [{"measurement": "Amount of NGF Produced", "setting": "[1]; Table 5, sample 1.00 mg/ml, no-sample control = 100% (0.063 ng/ml)", "result": 337.7, "unit": "%"}, {"measurement": "cases of death", "setting": "[2]", "result": "no cases of death"}]}
